“And” between values parts separate entries of the source, which are not always exact repeats. Equal entries are not always repeated.
Experiments:
[1] = molecular target: T1, Parkin ligase (Homo sapiens, UniProt O60260); experiment: Activity-based probe assay using an ubiquitin vinyl sulfone probe (TR-FRET); type: biochemical; conditions: for EC50: activation of heat activated Parkin, HA-Ub-VS probe, read-out: Probe Assay EC50 (μM) [Example 2]
T1 construct: Enzyme: Parkin-His tagged 203 μM (10.5 mg/ml)
T1 sequence (O60260 1-465): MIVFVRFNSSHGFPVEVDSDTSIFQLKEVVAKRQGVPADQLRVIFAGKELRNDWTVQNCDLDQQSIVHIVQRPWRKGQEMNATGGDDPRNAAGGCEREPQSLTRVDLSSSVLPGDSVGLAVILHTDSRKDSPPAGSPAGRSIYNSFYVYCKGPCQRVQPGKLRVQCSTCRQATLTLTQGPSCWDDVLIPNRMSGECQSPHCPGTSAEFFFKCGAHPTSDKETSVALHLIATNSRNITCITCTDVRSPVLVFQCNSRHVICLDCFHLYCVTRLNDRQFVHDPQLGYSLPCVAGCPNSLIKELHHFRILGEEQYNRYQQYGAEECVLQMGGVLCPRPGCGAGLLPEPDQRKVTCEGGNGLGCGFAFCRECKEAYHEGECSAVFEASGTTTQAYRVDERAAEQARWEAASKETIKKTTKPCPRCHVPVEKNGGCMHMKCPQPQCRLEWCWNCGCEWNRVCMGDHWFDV
Method: An Ubiquitin vinyl sulfone probe can be used that irreversibly binds to the active site cysteine of Parkin ligase. Covalent attachment of the probe to the Parkin can be monitored by TR-FRET. Candidate activator compounds can be identified by increasing the activity of Parkin ligase due to an increase in TR-FRET signal. Screening for activating compounds can be distinguished from the controls as follows:
100% activation signal=Heat activated Parkin+100 nM control activator in DMSO. 0% activation signal=Heat activated Parkin+DMSO only. Parkin activators can be identified by an increase of the 0% activation signal TR-FRET signal.
• Assay Plate: White 384 well plate (Corning 3572) • Enzyme: Parkin-His tagged 203 μM (10.5 mg/ml) • Probe: Ubiquitin vinyl-sulfone (HA-Ub-VS Boston Biochem U-212) • DMSO: DMSO (Sigma cat # D4540-100ML) • Reaction Buffer: 50 mM HEPES (pH 8.5), 150 mM NaCl, 0.01% Tween 20, 0.1% BSA • Detection Buffer: 50 mM HEPES (pH 8.5), 150 mM NaCl, 0.01% Tween 20, 0.1% BSA, 800 mM KF • Detection Reagent A: 2.6 nM Anti-6HIS-Eu cryptate and 40 nM Anti-HA-XL665 in detection buffer • Eu cryptate: Anti-6HIS-Eu cryptate (CisBio 61HISKLA) • XL665: Anti-HA-XL665 (CisBio 610HAXLA) Enzyme Reaction (15 min Pre Incubation Parkin with Activator Only) • Parkin: 40 nM • HA-Ub-VS Probe: 70 nM • Activator/DMSO: 2× Activator/2% DMSO • Reaction time: 60 minutes • Temperature: 22° C. • Total volume: 10 μl reaction
• Take 10 μl of Enzyme Reaction above and add 10 μl detection Reagent A under the following conditions: • Reaction time: 60 minutes • Temperature: 22° C. • Total volume: 20 μl
Assay procedure (Using HP D-300 compound dispenser and Bravo for the operation):
1) Heat activate Parkin in reaction buffer (500 μl/1.5 ml tube: Eppendorf Thermomixer 5 minutes, 400 rpm at 58° C. and put on ice until needed). 2) Load assay plate wells with 4.8 μl 84.5 nM Parkin in reaction buffer by use of Bravo. 3) Deliver 0.2 μl 200× activator candidates in DMSO by use of HP D-300 compound dispenser. Highest 200× concentration=20 μm and then twofold dilutions. 4) Spin 1000 rpm, 2 minutes, at room temp. 5) Incubate plate for 15 minutes at room temp. 6) Add 5 μl 140 nM HA-Ub-VS Probe in reaction buffer by use of Bravo. 7) Spin 1000 rpm, 2 minutes, at room temp. 8) Incubate plate for 60 minutes at room temp. 9) Add 10 μl 2.6 nM Anti-6HIS-Eu cryptate and 40 nM Anti-HA-XL665 in detection buffer. 10) Spin 1000 rpm, 2 minutes, at room temp. 11) Incubate plate for 60 minutes at room temp. 12) Read plates on Perkin Elmer Envision instrument with the following parameters:
LANCE dual laser protocol loaded into the Envision® software
Top Mirror: LANCE/DELFIA Duel/Bias (Bar code 446) Emission Filter: APC 665 EM (Bar code 205) 2nd Emission Filter: Europium 615 EM (Bar code 203) Read […] (channel 1) and 615 nm (channel 2) wavelengths on Envision®
Data Analysis: The Data can be read in CSV files. There are two tables in those CSV files, which are the values of 655 nm (channel 1) and 615 nm (channel 2) wavelengths respectively. The data is converted to an HTRF Ratio=(Channel 1/Channel 2)*10,000
The average of all the 0 uM controls (DMSO only)=BKGD (Background—0% activation). Subtract BKGD from each HTRF Ratio value=HTRF-BKGD. The average of all the […] 100 nM control activator in DMSO controls=Max (100% activation). The following equation is then used to calculate % Activation for each well/candidate as follows: % Activation=(HTRF−BKGD/Max)*100.
Graphpad Prisim was used with Transform X values: X=Log(X) and nonlinear regression (dose-response-stimulation): Log(agonist) vs Response—variable slope (four parameters) with constrains set to Bottom=0 and Top=100.

[2] = Metabolic stability in rat liver microsomes (RLM); type: in vitro ADME; conditions: rat, liver microsomes, pH 7.4, 1 μM compound, 1.0 mg/mL microsome, NADPH; read-out: RLM t1/2
Method: Compounds were also tested for metabolic stability in both rat liver microsomes (RLM) and human liver microsomes (HLM) and their half-life calculated (See Table 6). The assay was performed as follows. The total volume for each incubation was 250 μL. A 100 μM DMSO solution of compound (diluted from 10 mM stock solution) was spiked into 50 mM KH2PO4 (pH 7.4) buffer containing liver microsome at a concentration of 1.0 mg/mL. The reaction was initiated by the addition of 50 μL of 1 mM NADPH. The final concentration of each compound was 1 μM (1% DMSO). The positive controls, phenacetin for CYP1A2, diclofenac for CYP2C9, omeprazole for CYP2C19, dextromethorphan for CYP2D6 and midazolam for CYP3A4 were added to a separate tube with the final substrate concentrations of 1 μM (1% DMSO) for evaluating the enzyme activities in the liver microsomes. At 0, 15, 30 and 60 min, an aliquot of 15 μL reaction mixtures were removed and 200 μL of methanol (with internal standard of 25 ng/mL propranolol) was added to quench the reaction. The resulting mixture was centrifuged and supernatant was used for LC-MS/MS analysis.
The signals for each compound, or the metabolites for the probe substrates and the internal standard were integrated and the peak area ratios to internal standard were generated. Percent parent remaining at a specified timepoint was calculated based on the peak area ratios at time 0 (as 100%) for in vitro metabolic stability studies in liver microsome and hepatocyte. The observed rate constant (kobs) for the metabolism of substrates was calculated by plotting the natural log of percentage substrate remaining versus time of incubation with the slope being kobs. The half-life (T1/2) was calculated according to the following equation: […]

Row | Parkin Ligase reaction with the Activity-based Ubiquitin vinyl sulfone probe [1] | EC50 [1] | half-life at 1 μM [2] [min] | SMILES
1 | increases | 0.4 µM and 3.1 µM and 0.7 µM | 84.5 | Cc1nc2c(-c3ccccc3)c(C)nn2c(S)c1Cc1ccccc1 [Compound A, 6-benzyl-2,5-dimethyl-3-phenylpyrazolo[1,5-a]pyrimidine-7-thiol]
2 |  | 10.9 µM | 112 | Cc1nc2c(-c3ccccc3)c(C)nn2c(S)c1Cc1ccncc1 [Compound AA, 2,5-dimethyl-3-phenyl-6-(4-pyridylmethyl)pyrazolo[1,5-a]pyrimidine-7-thiol]
3 |  | 27 µM | 277 | Cc1nn2c(S)c3c(nc2c1-c1ccccc1)CN(C)CC3 [Compound C3]
4 |  | 5.8 µM | 55.9 | Cc1nc2c(-c3ccccc3)cnn2c(S)c1Cc1ccccc1 [Compound CC, 6-benzyl-5-methyl-3-phenyl-pyrazolo[1,5-a]pyrimidin-7-thiol]
5 |  | 24 µM | 63 | Cc1nc2c(-c3cccnc3)c(C)nn2c(S)c1Cc1ccccc1 [Compound D3]
6 |  | 4 µM | 3 | Cc1nn2c(S)c(CCc3ccccc3)cnc2c1-c1ccccc1 [Compound E3]
7 |  | 4 µM | 55.9 | Cc1cc(C)c2c(n1)nn1c(S)cc(C)nc21 [Compound E]
8 |  | 3 µM | 67 | Cc1cc(S)c2ncc(-c3ccc(F)cc3)n2n1 [Compound F3]
9 |  | 15 µM | 22 | Cc1nn2c(S)c(CC(C)C)cnc2c1-c1ccccc1 [Compound G3]
10 | increases | 18 µM | 68 | Cc1cc(S)n2ncc(-c3ccc(F)cc3)c2n1 [Compound L, 3-(4-fluorophenyl)-5-methylpyrazolo[1,5-a]pyrimidine-7-thiol]
11 |  | 6 µM | > 500 | Cc1ccc(-c2cnn3c(S)c4c(nc23)CN(C)CC4)cc1 [Compound S3]
12 |  | 8.73 µM | 29 | Cc1nc2c(-c3ccccc3)cnn2c(O)c1Cc1ccccc1 [Compound U, 6-benzyl-5-methyl-3-phenyl-pyrazolo[1,5-a]pyrimidin-7-ol]
13 |  | 8.9 µM | 12.9 | COc1ccc(-c2cnn3c(S)cc(C)nc23)cc1 [SS]
14 |  | 6.8 µM | 8.1 | Cc1ccc(-c2cnn3c(S)cc(C)nc23)cc1 [TT]
15 |  | 10.7 µM | 4.2 | Cc1cc(S)n2ncc(-c3cccc(N(C)C)c3)c2n1 [UU]
16 |  | 0.5 µM | 44 | Cc1nn2c(S)c(C)c(Cc3ccccc3)nc2c1-c1ccccc1 [ZZ]
